In patent EP0226475A1, “Diphenoxyethyl amine derivatives, process for their preparation and pharmaceutical compositions containing them” (Albert ROLLAND S.A. Société dite, priority 1985, dated 1987):

How the values were obtained:
Assay type in all cases: in vivo
[1] = biological target: NAd (Nor adrénaline) uptake (Rattus norvegicus, UniProt Q63380); assay: Uptake "ex vivo" of NAd; conditions: dose not given
Description: (§1) Activité sur les tests d'inhibition ou de recapture des principaux médiateurs adrénergiques.

5-HT (Sérotonine) uptake = 5-HT (Sérotonine) uptake (Rattus norvegicus, UniProt P31652); assay: Uptake "ex vivo" of 5-HT; conditions: dose not given, N.S. = not significant
Description: as §1
(§2) Les résultats obtenus en comparaison avec ceux des antidépresseurs classiques sont rassemblés dans le tableau II: […]

DA (Dopamine) uptake = DA (Dopamine) uptake (Rattus norvegicus, UniProt P23977); assay: Uptake "ex vivo" of DA; conditions: dose not given
Description: as §1, §2

CN(C)CC(Oc1ccccc1)Oc1ccccc1 [MEDIFOXAMINE]
inactif: UPTAKE "EX VIVO" % d'inhibition NAd [1] | UPTAKE "EX VIVO" % d'inhibition 5-HT (5-HT (Sérotonine) uptake) | UPTAKE "EX VIVO" % d'inhibition DA (DA (Dopamine) uptake)
